Assay results taken from publication PMC7819857, “Identification of Inhibitors of Integrin Cytoplasmic Domain Interactions With Syk” (Frontiers in Immunology, 2021).

Tested on: Pyk-2 phosphorylation in THP-1 cells
Assay: Integrin α4β1-induced phosphorylation of Pyk-2 in THP-1 cells plated on CS-1
Format: cell-based, human
Details: 100 µM loaded by glycerol shock
Description: Syk phosphorylation assays were performed by immobilizing vascular cell adhesion molecule-1 (VCAM)-1 (3 ug/ml), CS-1-BSA (10 ug/ml), or specific monoclonal antibodies (anti-FcγRI mAb 276426, anti-α4β1 mAb 19H8, anti-β2 mAb 76C3, anti-αvβ3 mAb LM609 all at 5 ug/ml) overnight at 4°C in Tris-HCl pH 7.5, 150 mM NaCl, in 6-well plates (non-tissue culture treated, Becton Dickenson, cat# BD351146). Plates were then blocked with BSA (2% w/v) for 1 h at room temperature. […] After electrophoresis, proteins were transferred to nitrocellulose for 1 h 100 V room temperature, blocked in 5% non-fat milk in TBS-T, and probed with the indicated primary antibody at 1:1,000 overnight at 4°C, followed by species-appropriate HRP secondary antibody (Southern Biotech) at 1:5,000 (30 min at room temperature), and detected using Pierce West Pico (Thermo Scientific cat# 34580). […]
Figure 6 Selective inhibition of integrin signaling by ceftazidime. […] Data are expressed as mean ± range from duplicate determinations. […] Kinase activity is expressed as percent of maximum signal. Data are expressed as mean ± SEM (n = 3). **p < 0.01 (D) Selective effects of ceftazidime on integrin signaling. […] Phosphorylation of Syk (left and right panel) and Pyk-2 (center panel) was analyzed by immunoprecipitation and western blot. […] Results are expressed as the mean ± SEM. […]

SMILES: CC(C)(O/N=C(\C(=O)N[C@@H]1C(=O)N2C(C(=O)[O-])=C(C[n+]3ccccc3)CS[C@H]12)c1csc(N)n1)C(=O)O [ceftazidime]
- integrin α4β1 induced phosphorylation of Pyk-2: inhibited
